Reference: patent publication US20250213571A1, “TYK2 INHIBITORS AND USES THEREOF” (Alumis Inc., priority 2022, published 2025)
Where two headings read alike, the source gives them in different places.

Assays:
[1] = target: human TYK2 (JH2domain-pseudokinase) (Homo sapiens (Human), UniProt P29597); assay: TYK2 JH2 domain binding assay (KINOMEscan)
Experimental: Binding constants for the compounds described herein against the JH2 domain were determined by the following protocol for a KINOMEscan® assay (DiscoveRx). A fusion protein of a partial length construct of human TYK2 (JH2domain-pseudokinase) (amino acids G556 to D888 based on reference sequence NP_003322.3) and the DNA binding domain of NFkB was expressed in transiently transfected HEK293 cells. From these HEK 293 cells, extracts were prepared in M-PER extraction buffer (Pierce) in the presence of Protease Inhibitor Cocktail Complete (Roche) and Phosphatase Inhibitor Cocktail Set II (Merck) per manufacturers' instructions. The TYK2 (JH2domain-pseudokinase) fusion protein was labeled with a chimeric double-stranded DNA tag containing the NFkB binding site fused to an amplicon for qPCR readout, which was added directly to the expression extract (the final concentration of DNA-tag in the binding reaction is 0.1 nM).
Streptavidin-coated magnetic beads (Dynal M280) were treated with a biotinylated small molecule ligand for 30 minutes at room temperature to generate affinity resins the binding assays. The liganded beads were blocked with excess biotin and washed with blocking buffer (SeaBlock (Pierce), 1% BSA, 0.05% Tween 20, 1 mM DTT) to remove unbound ligand and to reduce nonspecific binding.
The binding reaction was assembled by combining 16 μl of DNA-tagged kinase extract, 3.8 μl liganded affinity beads, and 0.18 μl test compound (PBS/0.05% Tween 20/10 mM DTT/0.1% BSA/2 μg/ml sonicated salmon sperm DNA)]. Extracts were used directly in binding assays without any enzyme purification steps at a ≥10,000-fold overall stock dilution (final DNA-tagged enzyme concentration <0.1 nM). Extracts were loaded with DNA-tag and diluted into the binding reaction in a two-step process. First extracts were diluted 1:100 in 1×binding buffer (PBS/0.05% Tween 20/10 mM DTT/0.1% BSA/2 […] sonicated salmon sperm DNA) containing 10 nM DNA-tag. This dilution was allowed to equilibrate at room temperature for 15 minutes and then subsequently diluted 1:100 in 1× binding buffer. Test compounds were prepared as 111× stocks in 100% DMSO. Kds were determined using an 11-point 3-fold compound dilution series with three DMSO control points. All compounds for Kd measurements were distributed by acoustic transfer (non-contact dispensing) in 100% DMSO. The compounds were then diluted directly into the assays such that the final concentration of DMSO was 0.9%. All reactions were performed in polypropylene 384-well plates. Each was a final volume of 0.02 mL. Assays were incubated with shaking for 1 hour at room temperature. Then the beads were pelleted and washed with wash buffer (1×PBS, 0.05% Tween 20) to remove displaced kinase and test compound. The washed based were resuspended in elution buffer (1 λPBS, 0.05% Tween […] non-biotinylated affinity ligand) and incubated at room temperature with shaking for 30 minutes. The kinase concentration in the eluates was measured by qPCR. qPCR reactions were assembled by adding 2.5 μL of kinase eluate to 7.5 μL of qPCR master mix containing […] amplicon primers and 0.15 μM amplicon probe. The qPCR protocol consisted of a 10 minute hot start at 95° C., followed by 35 cycles of 95° C. for 15 seconds, 60° C. for 1 minute.
Test compounds were prepared as 111× stocks in 100% DMSO. Kds were determined using an 11-point 3-fold compound dilution series with three DMSO control points. All compounds for Kd measurements were distributed by acoustic transfer (non-contact dispensing) in 100% DMSO. The compounds were then diluted directly into the assays such that the final concentration of DMSO was 0.9%. The Kds were determined using a compound top concentration of 30,000 nM. Kd measurements were performed in duplicate.
Binding constants (Kds) were calculated with a standard dose-response curve using the Hill equation: […]
The Hill Slope was set to −1. […]

TYK2 JH1 = TYK2 JH1 (Homo sapiens (Human), UniProt P29597); assay: TYK2 JH1 binding (Kd, Table 2); conditions: JH1 domain
Chain of TYK2 JH1 (P29597 897-1176): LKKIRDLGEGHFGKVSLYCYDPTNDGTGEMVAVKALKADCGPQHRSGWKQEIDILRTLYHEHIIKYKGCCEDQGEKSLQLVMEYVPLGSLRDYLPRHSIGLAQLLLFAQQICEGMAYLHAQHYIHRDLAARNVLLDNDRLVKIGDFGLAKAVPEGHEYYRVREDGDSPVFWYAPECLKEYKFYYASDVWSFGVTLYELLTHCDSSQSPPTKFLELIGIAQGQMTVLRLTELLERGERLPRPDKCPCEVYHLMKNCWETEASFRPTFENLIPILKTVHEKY

JAK1 JH2 = JAK1 JH2 (Homo sapiens (Human), UniProt P23458); assay: JAK1 JH2 binding (Kd, Table 2); conditions: JH2 domain
Chain of JAK1 JH2 (P23458 583-855): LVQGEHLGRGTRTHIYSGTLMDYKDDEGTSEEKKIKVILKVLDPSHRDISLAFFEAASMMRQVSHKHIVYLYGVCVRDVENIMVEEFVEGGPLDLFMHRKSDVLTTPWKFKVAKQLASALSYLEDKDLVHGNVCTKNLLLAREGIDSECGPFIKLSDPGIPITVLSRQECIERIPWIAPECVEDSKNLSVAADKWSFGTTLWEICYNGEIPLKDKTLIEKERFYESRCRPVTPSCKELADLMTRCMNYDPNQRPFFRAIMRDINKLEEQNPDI

IFNa, PBMCs, p-STAT3 = assay: IFNa induced p-STAT3 in PBMCs; format: cell-based; conditions: Homo sapiens, PBMC, IFNa stimulated PBMCs
[2] = system: INFα Induced pSTAT5 in Human PBMC; assay: INFα induced pSTAT5 in human PBMC; format: cell-based; conditions: 0.25 h, human PBMCs, INFα 5000 units/ml 15 minutes, p-STAT5, read-out: IFNa, PBMCs, p-STAT5 (IC50)
Experimental: Fresh Human PBMCs were resuspended in RPMI 1640 medium with 10% FBS. Cells were seeded in a round bottom 96-well plate at the concentration of 200,000 cells/well. A 10-point dilution series of test compound (top dose 10 uM, 1:5 dilution) was added to the well using the liquid dispenser (Tecan D300e) and incubated for 1 hour at 37 C. Then human INFα recombinant protein (R&D Systems) was added to the well at the final concentration of 5000 units/ml and incubated for 15 minutes at 37 C. Cell lysates were prepared and analyzed by Phospho STAT5 (Tyr693) Kit (Meso Scale Discovery) following manufacturer's protocol.
For calculation of the inhibition rate, the relative pSTAT5 signal of each well=pSTAT5 signal of each well−the average pSTAT5 signal of baseline.
The inhibition %=(the average pSTAT5 signal of INFα treatment wells−the relative of pSTAT5 signal in each compound containing well)/the average pSTAT5 signal of INFα treatment wells*100%
The curve was plotted as the inhibition % (y-axis) vs. compounds concentration (x-axis) and is fitted with log(inhibitor) vs. normalized response—Variable slope by GraphPad Prism7.0.

JAK3 JH1 = JAK3 JH1 (Homo sapiens (Human), UniProt P52333); assay: JAK3 JH1 binding (Kd, Table 2); conditions: JH1 domain
Chain of JAK3 JH1 (P52333 822-1111): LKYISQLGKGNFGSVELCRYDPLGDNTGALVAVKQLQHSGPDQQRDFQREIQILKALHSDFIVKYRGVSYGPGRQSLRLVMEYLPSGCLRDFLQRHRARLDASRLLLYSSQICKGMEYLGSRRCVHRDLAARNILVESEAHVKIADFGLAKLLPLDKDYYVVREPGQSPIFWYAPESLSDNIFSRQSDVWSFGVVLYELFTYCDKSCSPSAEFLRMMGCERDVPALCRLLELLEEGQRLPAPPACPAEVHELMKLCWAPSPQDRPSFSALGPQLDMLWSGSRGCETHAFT

JAK2 JH2 = JAK2 JH2 (Homo sapiens (Human), UniProt O60674); assay: JAK2 JH2 binding (Kd, Table 2); conditions: JH2 domain
Chain of JAK2 JH2 (O60674 545-809): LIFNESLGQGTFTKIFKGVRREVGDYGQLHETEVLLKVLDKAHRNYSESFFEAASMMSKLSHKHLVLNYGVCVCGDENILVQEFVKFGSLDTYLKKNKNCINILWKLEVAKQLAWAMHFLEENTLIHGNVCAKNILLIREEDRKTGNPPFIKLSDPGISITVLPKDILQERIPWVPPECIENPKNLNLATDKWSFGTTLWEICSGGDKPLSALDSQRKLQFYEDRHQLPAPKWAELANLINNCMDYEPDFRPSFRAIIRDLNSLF

JAK2 JH1 = JAK2 JH1 (Homo sapiens (Human), UniProt O60674); assay: JAK2 JH1 binding (Kd, Table 2); conditions: JH1 domain
Chain of JAK2 JH1 (O60674 849-1124): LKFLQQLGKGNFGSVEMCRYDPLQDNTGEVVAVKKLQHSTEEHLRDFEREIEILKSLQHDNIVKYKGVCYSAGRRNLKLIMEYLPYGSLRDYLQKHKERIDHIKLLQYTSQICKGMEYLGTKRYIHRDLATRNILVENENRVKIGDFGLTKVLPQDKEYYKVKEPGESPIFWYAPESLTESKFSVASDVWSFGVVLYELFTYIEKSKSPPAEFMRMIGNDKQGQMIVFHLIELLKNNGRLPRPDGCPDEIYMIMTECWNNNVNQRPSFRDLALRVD

JAK1 JH1 = JAK1 JH1 (Homo sapiens (Human), UniProt P23458); assay: JAK1 JH1 binding (Kd, Table 2); conditions: JH1 domain
Chain of JAK1 JH1 (P23458 875-1153): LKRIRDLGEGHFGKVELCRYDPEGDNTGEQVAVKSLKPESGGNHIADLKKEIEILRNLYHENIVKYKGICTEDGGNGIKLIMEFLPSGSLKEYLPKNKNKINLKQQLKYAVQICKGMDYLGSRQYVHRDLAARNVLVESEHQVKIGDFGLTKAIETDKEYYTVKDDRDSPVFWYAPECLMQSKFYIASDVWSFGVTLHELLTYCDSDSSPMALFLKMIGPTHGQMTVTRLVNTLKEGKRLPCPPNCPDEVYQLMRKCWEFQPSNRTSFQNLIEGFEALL

[3] = cn_pd bond, 14-membered ring
[4] = cn_pd bond, 14-membered ring; remark: listed apart in the source

Chain of human TYK2 (JH2domain-pseudokinase) (P29597 556-888): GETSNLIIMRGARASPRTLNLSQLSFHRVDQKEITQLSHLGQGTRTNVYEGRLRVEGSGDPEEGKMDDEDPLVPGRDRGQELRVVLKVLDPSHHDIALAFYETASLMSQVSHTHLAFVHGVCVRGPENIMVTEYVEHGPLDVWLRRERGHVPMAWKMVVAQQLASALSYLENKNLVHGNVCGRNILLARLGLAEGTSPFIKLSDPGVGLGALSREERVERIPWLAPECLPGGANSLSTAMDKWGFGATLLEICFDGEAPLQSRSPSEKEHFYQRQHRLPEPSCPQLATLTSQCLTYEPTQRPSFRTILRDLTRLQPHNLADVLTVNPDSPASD

Compound	Kd [1]	Kd (TYK2 JH1)	Kd (JAK1 JH2)	Kd (JAK3 JH1)	Kd (JAK2 JH2)	Kd (JAK2 JH1)	Kd (JAK1 JH1)	other results
CNc1cc2nn3c(cnc13)C(=O)N[C@H](CO)COCc1cc(c3nnn(C)c3c1)N2 [Compound 2]	< 0.01 µM	≥ 30 µM	0.01 to 1 µM	–	–	–	–	IC50 (IFNa, PBMCs, p-STAT3): ≥ 0.1 µM; IC50 [2]: < 0.05 µM
CNc1cc2nc3c(cnn13)C(=O)N[C@H](C)COCc1cc(c3c(c1)nnn3C)N2 [Compound 37]	< 0.01 µM	≥ 30 µM	10 to 30 µM	≥ 30 µM	≥ 30 µM	≥ 30 µM	≥ 30 µM	–
[2H]C1([2H])OC[C@@H](C)NC(=O)c2cnc3c(NC)cc(nn23)Nc2cc1cc1c2nnn1C [Compound 7, (7R,E)-3′,7-Dimethyl-1^8-(methylamino)-3^1H-5-oxa-2,8-diaza-1(6,3),3(4,6)-diimidazo[1,2-b]pyridazinacyclononaphan-9-one-4,4-d2]	< 0.01 µM	1 to 10 µM	0.01 to 1 µM	10 to 30 µM	1 to 10 µM	≥ 30 µM	≥ 30 µM	–
CNc1cc2nn3c(cnc13)C(=O)N[C@H](C)COCc1cc(c3c(c1)ncn3C)N2 [Compound 8, (7R,E)-3′,7-Dimethyl-1^8-(methylamino)-3^1H-5-oxa-2,8-diaza-1(6,3)-imidazo[1,2-b] pyridazina-3(7,5)-benzo[d]imidazolacyclononaphan-9-one]	–	1 to 10 µM	0.01 to 1 µM	10 to 30 µM	1 to 10 µM	≥ 30 µM	≥ 30 µM	–
CNc1cc2nc3c(cnn13)C(=O)N[C@H](C)COCc1cc(c3nnn(C)c3c1)N2 [Compound 33]	< 0.01 µM	≥ 30 µM	1 to 10 µM	≥ 30 µM	≥ 30 µM	≥ 30 µM	≥ 30 µM	–
tert-butyl N-methyl-N-[(12R)-12-methyl-10-oxo-14-oxa-2,4,5,7,11,16-hexaazapentacyclo[13.6.2.2^(3,6.0^(5,9.0^(19,23]pentacosa-1(21),3,6,8,15,17,19,22,24-nonaen-24-yl]carbamate	–	–	–	–	–	–	–	ring closure, yield after HPLC ([3]; Pd2(dba)3/Xantphos/Cs2CO3, 1,4-dioxane, 50.0 mM, 80.0 °C): 60%
CNc1cc2nc3c(cnn13)C(=O)N[C@H](C)COCc1cc(c3nn(C)nc3c1)N2 [Compound 34]	< 0.01 µM	≥ 30 µM	0.01 to 1 µM	≥ 30 µM	10 to 30 µM	≥ 30 µM	≥ 30 µM	–
CNc1nc2cn3c(c(C)nc13)C(=O)N[C@H](C)COCc1cc(c3nnn(C)c3c1)N2 [Compound 78]	1 to 10 µM	–	–	–	–	–	–	ring closure, yield after HPLC ([3]; from CNc1nc(Br)cn2c(C(=O)N[C@H](C)COCc3cc(N)c4nnn(C)c4c3)c(C)nc12, RuPhos Pd G3/Cs2CO3, 1,4-dioxane, 64.0 mM, 80.0 °C): 11.3%
CNc1cc2nn3c(cnc13)C(=O)N[C@H](C)COCc1cc(c3nnn(C)c3c1)N2 [Compound 5]	< 0.01 µM	≥ 30 µM	1 to 10 µM	≥ 30 µM	10 to 30 µM	≥ 30 µM	≥ 30 µM	IC50 (IFNa, PBMCs, p-STAT3): < 0.05 µM; IC50 [2]: < 0.05 µM
COc1nc2cn3c(c(C)nc13)C(=O)N[C@H](C)COCc1cc(c3nnn(C)c3c1)N2 [Compound 72]	0.01 to 1 µM	–	–	–	–	–	–	ring closure, yield after HPLC ([3]; from COc1nc(Br)cn2c(C(=O)N[C@H](C)COCc3cc(N)c4nnn(C)c4c3)c(C)nc12, RuPhos Pd G3/Cs2CO3, 1,4-dioxane, 72.0 mM, 80.0 °C, 4.0 h): 21%
COc1nc2cn3c(cnc13)C(=O)N[C@H](C)COCc1cc(c3nnn(C)c3c1)N2 [Compound 79]	1 to 10 µM	≥ 30 µM	≥ 30 µM	–	–	–	–	ring closure, yield after HPLC ([3]; from COc1nc(Br)cn2c(C(=O)N[C@H](C)COCc3cc(N)c4nnn(C)c4c3)cnc12, Pd2(dba)3/Xantphos/Cs2CO3, 1,4-dioxane, 61.0 mM, 80.0 °C): 14%
CNc1cc2nn3c(cnc13)C(=O)O[C@H](C)COCc1cc(c3nnn(C)c3c1)N2 [Compound 3, (7R,E)-3′,7-Dimethyl-1^8-(methylamino)-3^1H-5,8-dioxa-2-aza-1(6,3),3(4,6)-diimidazo[1,2-b]pyridazinacyclononaphan-9-one]	< 0.01 µM	≥ 30 µM	1 to 10 µM	–	–	–	–	ring closure, isolated yield ([4]; from CNc1cc(Cl)nn2c(C(=O)O[C@H](C)COCc3cc(N)c4nnn(C)c4c3)cnc12, Pd2(dba)3/BINAP/Cs2CO3, dioxane, 27.5 mM, 16.0 h): 33%
Cc1nc2cnc3cn2c1C(=O)N[C@H](C)COCc1cc(c2nnn(C)c2c1)N3 [Compound 81]	1 to 10 µM	≥ 30 µM	≥ 30 µM	–	–	–	–	ring closure, yield after HPLC ([3]; from Cc1nc2cnc(Br)cn2c1C(=O)N[C@H](C)COCc1cc(N)c2nnn(C)c2c1, RuPhos Pd G3/Cs2CO3, dioxane, 80.0 °C): 20%
tert-butyl N-methyl-N-[(12R)-12-methyl-10-oxo-2,4,5,7,11,14,16,18-octaazapentacyclo[13.6.2.2^(3,6.0^(5,9.0^(19,23]pentacosa-1(21),3,6,8,15,17,19,22,24-nonaen-24-yl]carbamate	–	–	–	–	–	–	–	ring closure, isolated yield ([4]; Pd2(dba)3/Xantphos/Cs2CO3, 1,4-dioxane, 100.0 mM, 85.0 °C): 18%
Cc1nc2c(N)nc3cn2c1C(=O)N[C@H](C)COCc1cc(c2nnn(C)c2c1)N3 [Compound 74]	0.01 to 1 µM	–	–	–	–	–	–	ring closure, yield after HPLC ([3]; from Cc1nc2c(N)nc(Br)cn2c1C(=O)N[C@H](C)COCc1cc(N)c2nnn(C)c2c1, Pd2(dba)3/Xantphos/Cs2CO3, dioxane, 100.0 °C, 16.0 h): 6.2%
C[C@@H]1COCc2cc(c3nnn(C)c3c2)Nc2cn3c(cnc3c(N)n2)C(=O)N1 [Compound 73]	0.01 to 1 µM	–	–	–	–	–	–	ring closure, yield after HPLC ([3]; from C[C@H](COCc1cc(N)c2nnn(C)c2c1)NC(=O)c1cnc2c(N)nc(Br)cn12, RuPhos Pd G3 (0.5 eq)/Cs2CO3, dioxane, 64.0 mM, 100.0 °C, 16.0 h): 4.4%
